From patent US20150305372A1, “FEED INTAKE OF RUMINANTS USING GREEN FODDER FLAVORS” (BASF SE, priority 2014, published 2015)
Entries after “also recorded” stand apart in the source; their conditions may differ. Marks after values point to notes of the source that are not given here.

Test system: dairy cows having a high milk performance (German Holstein cattle)
Assay: Feeding study of trans-hex-2-enal and hexanal on feed intake, feed intake behavior, milk performance and milk composition of dairy cows
Type: in vivo
Settings: for FMI (fresh matter intake): 4.3 g/cow/day in TMR via wheat bran premix, control 43.6; for FMI (fresh matter intake) / Milk protein yield / Milk fat yield / DMI (% of BW) / Milk protein / Milk fat / DMI / ECM (energy-corrected milk) / Milk yield / Eating period / Frequency of visits: LSQ means; for FMI (fresh matter intake) / DMI / Eating period: p < 0.05; for Milk protein yield / Milk fat yield / DMI (% of BW) / Milk protein / Milk fat / DMI / ECM (energy-corrected milk) / Milk yield / Eating period / Frequency of visits: 4.3 g/cow/day in TMR; for Milk protein yield: control 1.04; for Milk fat yield: control 1.16; for DMI (% of BW): control 3.3; for Milk protein: control 3.36; for Milk fat: control 3.69; for DMI: control 22.2; for ECM (energy-corrected milk): control 30.2; for Milk yield: control 31.6; for Eating period: control 184; for Frequency of visits: visits to feed trough per day, control 33.1, p < 0.0001; for dry matter intake (DMI) compared with the control group, in words: A vs control p<0.067, B vs control p<0.0234; for visits to the feed trough: control 33.1 visits per day; for fresh matter intake (FMI) compared with the control group, in words: p<0.0001; for more frequent visits to the feed trough than the control group: per day, versus control group
Experimental: The purpose of the present study is to establish whether 4.3 g/cow/day of trans-hex-2-enal or 4.3 g/cow/day of hexanal affect the DMI value, the milk performance, the milk composition or the feed intake behavior (duration, frequency, etc.) of dairy cows.
The start of the study was calendar week 18 of the experimental year and the end of the study was calendar week 24 of the same year. The feed consumption was determined by means of feed troughs with electronic weight determination, produced by Insentec B.V. (Marknesse, Netherlands). The system identifies each animal by scanning the respective transponder on the neck band of the respective cow using a light barrier. After identification, the animal is allowed free access to the feed trough and the amount of feed taken in on each visit to the trough is recorded automatically.
The system thus determines all visits of each cow to the feed trough, the respective feed intake and the duration of the respective visit. The feed troughs were filled once a day at about 06.30 hours in the morning with an amount of about 70 kg of feed, after the residual feed of the previous day had been removed. During the morning milking, the feed troughs were closed for cleaning for a period of 20 to 30 minutes.
The milk yield was determined individually during each milking process and recorded by the Herd Management Software DairyPlan C21 (GEA Farm Technologies, Boenen, Germany). The cows were milked twice daily at 05.00 hours in the morning and 15.30 hours in the afternoon. Fresh water was freely available at all times.
Every Monday, after each milking, milk samples were taken and, for each cow, the milk composition (fat, protein, somatic cell count) was determined. The energy-corrected milk value (ECM) was determined according to the following equation: […]
All of the cows received a total mixed ration (TMR) (table 2) having a calculated mean daily feed intake of 22 kg of dry matter (DM). Trans-hex-2-enal and hexanal were added to the TMR and thus fed by a premix with wheat bran (trans-hex-2-enal/wheat bran for group A and hexanal/wheat bran for group B).
Samples of the TMR were withdrawn daily from each of the rations, combined to form a weekly sample and frozen until determination of the DM content of the TMRs. Samples of all feed components were taken every 14 days, frozen and pooled over the entire feeding trial up until laboratory analysis.
A standard model for statistical analysis using all parameters was adapted to the weekly data. This is a general, linear, mixed model with the cow as a chance effect and containing the following co-variables:
For the treatment effect, an “overall” P value was presented, and also a P value for the differences between the groups, which were tested both adapted and also non-adapted by means of the Tukey test.

SMILES	daily FMI value, mean (4.3 g/cow/day) [kg FMI per day]	daily milk production and milk composition compared with the control group, in words (4.3 g/cow/day)	FMI (fresh matter intake)	Milk protein yield [kg/day]	Milk fat yield [kg/day]	DMI (% of BW)	Milk protein [%]	Milk fat [%]	DMI	ECM (energy-corrected milk) [kg/day]	Milk yield [kg/day]	Eating period	Frequency of visits	dry matter intake (DMI) compared with the control group, in words (4.3 g/cow/day)	visits to the feed trough (4.3 g/cow/day) [times per day]	fresh matter intake (FMI) compared with the control group, in words (4.3 g/cow/day)	more frequent visits to the feed trough than the control group (4.3 g/cow/day) [%]
CCCCCC=O [Hexanal, hexanal]	48.3	no differences	48.3^b kg/d	1.06	1.22	3.7 % of BW	3.28	3.77	23.8^b kg/d	31.3	32.7	212^b min	45.2^b	significant advantage	45.2	higher; also recorded: significantly increased	37
CCC/C=C/C=O [Trans-hex-2-enal]		no differences	47.8^b kg/d	1.06	1.19	3.6 % of BW	3.26	3.66	23.5^ab kg/d	31.1	33.1	206^ab min	48.6^b	significant advantage	48.6	higher; also recorded: significantly increased	47
